Common to all, as to test: Bliss excess, mean over the matrix (fraction); higher = more synergy
For experiment [1], the system named is DU-145 (Prostate Carcinoma). A digest of the protocol:
(§1)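 Bliss excess equals the observed combination effect minus the expected value EA + EB − EA·EB, where EA and EB are the effects of each agent alone. Combination Emax is the second-highest inhibition within the matrix. Inhibition was scaled from CellTiter-Glo 2.0 luminescence, with 0 set by vehicle wells and 1 by blank wells, after 72 hours of two-drug dosing of cells plated in 1536-well plates.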

The test system of experiment [2] is EFO-21 (Ovarian Carcinoma). A digest of the protocol: as §1
Experiment [3] deals with EJM (Plasma Cell Myeloma). A digest of the protocol: as §1
The next experiment relates to EW-1 (Ewing's Sarcoma). A digest of the protocol:
as §1

Experiment [4] has as its system HCC1500 (Breast Carcinoma). A digest of the protocol:
as §1

Experiment [5] deals with HCC1937 (Breast Carcinoma). A digest of the protocol:
as §1

Experiment [6] concerns KMRC-1 (Kidney Carcinoma). A digest of the protocol: as §1
Experiment [7] deals with MDA-MB-453 (Breast Carcinoma). A digest of the protocol:
as §1

Experiment [8] concerns ME-180 (Cervical Carcinoma). A digest of the protocol: as §1
The subject of experiment [9] is ML-2 (Acute Myeloid Leukemia). A digest of the protocol: as §1
The subject of experiment [10] is MOLT-4 (T-Lymphoblastic Leukemia). A digest of the protocol: as §1
Experiment [11] has as its system MV-4-11 (Acute Myeloid Leukemia). A digest of the protocol: as §1
Experiment [12] relates to Mo-T (Other Blood Carcinomas). A digest of the protocol:
as §1

The subject of experiment [13] is NCI-H1092 (Small Cell Lung Carcinoma). A digest of the protocol: as §1
Experiment [14] has as its system NCI-H1355 (Lung Adenocarcinoma). A digest of the protocol:
as §1

The subject of experiment [15] is NCI-H1993 (Lung Adenocarcinoma). A digest of the protocol: as §1
Experiment [16] deals with NCI-H522 (Lung Adenocarcinoma). A digest of the protocol:
as §1

For experiment [17], the system named is OE33 (Esophageal Adenocarcinoma). A digest of the protocol: as §1
Another experiment has as its system SK-N-AS (Neuroblastoma). A digest of the protocol: as §1
Experiment [18] deals with SW982 (Other Solid Carcinomas). A digest of the protocol:
as §1

As to `CC(=O)c1c(C)c2cnc(Nc3ccc(N4CCNCC4)cn3)nc2n(C2CCCC2)c1=O` [Palbociclib] + Cn1cnc2c(F)c(Nc3ccc(Br)cc3Cl)c(C(=O)NOCCO)cc21 [Selumetinib] (first compound max 10 µM, 7x7, partner max 10 µM), the Bliss excess is -0.0326 in experiment [1]; -0.0531 in experiment [2]; -0.0193 in [3]; -0.0082 with EW-1 (Ewing's Sarcoma); -0.0229 in experiment [4]; -0.0788 in experiment [5]. The Bliss excess is -0.0461 in experiment [6]; -0.036 in [7]; 0.0042 in experiment [8]; 0.0685 in experiment [9]; -0.012 in experiment [10]; 0.0537 in experiment [11]. The Bliss excess was -0.0225 in experiment [12]; -0.0322 in experiment [13]; 0.0542 in experiment [14]; 0.0904 in experiment [15]; -0.0389 in experiment [16]; -0.02 in [17]. In addition, the Bliss excess in the experiment with SK-N-AS (Neuroblastoma) is 0.0583; in [18], -0.058.

Consider `COc1cccc(OCCCN)c1-c1cc(Nc2cnc(C#N)cn2)n[nH]1` [Prexasertib] + C=CCn1c(=O)c2cnc(Nc3ccc(N4CCN(C)CC4)cc3)nc2n1-c1cccc(C(C)(C)O)n1 [AZD1775] (first compound max 1 µM, partner max 1 µM), for which the Bliss excess was 0.0361 in experiment [1]; -0.0075 in [2]; 0.0228 in experiment [3]; 0.0461 in the experiment with EW-1 (Ewing's Sarcoma); 0.146 in experiment [4]; -0.0247 in experiment [5]. For the same compound, the Bliss excess amounted to 0.0366 in experiment [6]; 0.0702 in [7]; 0.0017 in experiment [8]; 0.045 in experiment [9]; 0.0873 in experiment [10]; 0.0775 in [11]. Further, the Bliss excess in experiment [12] is 0.0023; in experiment [13] it was 0.031; in experiment [14], -0.0039; in experiment [15], 0.0596; in experiment [16] it was 0.143; in experiment [17], 0.0352. Besides, the Bliss excess was 0.0218 in the experiment on SK-N-AS (Neuroblastoma) and -0.0341 in experiment [18].

`COc1cccc(OCCCN)c1-c1cc(Nc2cnc(C#N)cn2)n[nH]1` [Prexasertib] + CCc1c2c(nc3ccc(O)cc13)-c1cc3c(c(=O)n1C2)COC(=O)[C@]3(O)CC [SN-38] (first compound max 1 µM, 7x7, partner max 0.3 µM): the Bliss excess is -0.0423 in experiment [1]; -0.0714 in experiment [2]; -0.0446 in experiment [3]; -0.012 with EW-1 (Ewing's Sarcoma); -0.0269 in [4]; -0.011 in experiment [5]. The Bliss excess is -0.0247 in experiment [6]; 0.0234 in [7]; 0.0232 in experiment [8]; -0.007 in experiment [9]; -0.0075 in [10]; -0.0107 in experiment [11]. Further, the Bliss excess is -0.0465 in experiment [12]; 0.0354 in [13]; 0.0231 in [14]; 0.055 in [15]; 0.163 in experiment [16]; -0.0165 in experiment [17]. Also, the Bliss excess in the experiment with SK-N-AS (Neuroblastoma) was 0.0088; in experiment [18] it was -0.0952.

For `COc1cccc(OCCCN)c1-c1cc(Nc2cnc(C#N)cn2)n[nH]1` [Prexasertib] + CN(C)CCCOc1ccc(-c2ccc3ncc4c(c3c2)n(C2CCOCC2)c(=O)n4C)cn1 [AZD0156] (first compound max 1 µM, 7x7, partner max 1 µM), the Bliss excess was -0.0405 in [1]; -0.0684 in experiment [2]; -0.0303 in experiment [3]; -0.0145 in the experiment with EW-1 (Ewing's Sarcoma); 0.0475 in experiment [4]; 0.0409 in experiment [5]. For the same compound, the Bliss excess in experiment [6] was -0.0317; in [7] it was -0.0509; in [8], -0.0255; in experiment [9], 0.003; in experiment [10] it was 0.0108; in experiment [11], -0.0249. For the same compound, the Bliss excess in experiment [12] was 0.0105; in experiment [13], -0.0561; in [14], -0.0429; in experiment [15] it was -0.0768; in experiment [16], -0.0189; in experiment [17], -0.0272. In addition, the Bliss excess was -0.0026 in the experiment with SK-N-AS (Neuroblastoma) and -0.0813 in experiment [18].

Turning to `COc1cccc(OCCCN)c1-c1cc(Nc2cnc(C#N)cn2)n[nH]1` [Prexasertib] + C[C@@H]1COCCN1C2=NC(=NC(=C2)C3(CC3)[S@](=N)(=O)C)C4=C5C=CNC5=NC=C4 [AZD6738] (first compound max 1 µM, 7x7, partner max 10 µM), the Bliss excess is -0.0844 in experiment [1]; -0.02 in experiment [2]; -0.044 in experiment [3]; -0.0158 with EW-1 (Ewing's Sarcoma); 0.0568 in [4]; -0.0129 in experiment [5]. The Bliss excess in experiment [6] is 0.0101; in [7], -0.0036; in experiment [8], 0.0255; in [9], -0.0361; in experiment [10], 0.0087; in [11] it was -0.0356. Further, the Bliss excess in [12] is -0.0463; in experiment [13] it was -0.0568; in experiment [14], 0.0276; in experiment [15] it was -0.0176; in experiment [16] it was 0.0392; in experiment [17], -0.0334. The Bliss excess with SK-N-AS (Neuroblastoma) was -0.011; in experiment [18] it was -0.0406.

As for `COc1cccc(OCCCN)c1-c1cc(Nc2cnc(C#N)cn2)n[nH]1` [Prexasertib] + Cc1cc2ncnn2cc1Nc1ncc2c(n1)n(C1CCOCC1)c(=O)n2C [AZD7648] (first compound max 1 µM, 7x7, partner max 10 µM), the Bliss excess is -0.0381 in experiment [1]; -0.0446 in experiment [2]; -0.0334 in [3]; -0.0217 with EW-1 (Ewing's Sarcoma); 0.0354 in experiment [4]; -0.0594 in experiment [5]. In addition, the Bliss excess is -0.0152 in experiment [6]; -0.0143 in [7]; 0.0041 in experiment [8]; -0.0357 in experiment [9]; 0.0091 in experiment [10]; -0.0083 in experiment [11]. Moreover, the Bliss excess in [12] was 0.0159; in [13] it was -0.0287; in experiment [14], -0.0405; in experiment [15], -0.0683; in experiment [16], -0.0005; in experiment [17] it was 0.0061. Besides, the Bliss excess with SK-N-AS (Neuroblastoma) is -0.0015; in experiment [18] it was -0.0355.

On to `COc1cccc(OCCCN)c1-c1cc(Nc2cnc(C#N)cn2)n[nH]1` [Prexasertib] + O=C(c1cc(Cc2n[nH]c(=O)c3ccccc23)ccc1F)N1CCN(C(=O)C2CC2)CC1 [Olaparib] (first compound max 1 µM, 7x7, partner max 10 µM), for which the Bliss excess in experiment [1] was -0.0144; in experiment [2], -0.1; in experiment [3], -0.0434; in the experiment on EW-1 (Ewing's Sarcoma), -0.0144; in experiment [4] it was -0.004; in experiment [5] it was -0.103. In addition, the Bliss excess was -0.0411 in experiment [6]; -0.128 in experiment [7]; -0.0511 in [8]; -0.0006 in [9]; 0.0154 in [10]; -0.0247 in experiment [11]. Besides, the Bliss excess in experiment [12] was 0.0066; in experiment [13] it was -0.0514; in experiment [14], -0.0448; in experiment [15] it was -0.0685; in experiment [16], -0.0491; in experiment [17], -0.0925. Moreover, the Bliss excess is -0.0412 in the experiment on SK-N-AS (Neuroblastoma) and -0.103 in [18].

Source of the values: the supplement of paper PMC11061612.
